Test results as given in patent US20220071960A1, “CANCER TREATMENTS” (IMPERIAL COLLEGE INNOVATIONS LIMITED, priority 2018, published 2022).

How the values were obtained:
[1] = test system: P-493-6 cell line; test: CellTiter Blue metabolic viability, P-493-6; format: cell-based
Description: The P-493-6 cell line is a non-transformed B cell line that can be genetically engineered to have either “low” levels of c-Myc, “medium” levels of c-Myc or “high” levels of c-Myc. The terms “low”, “medium” and “high” are descriptors commonly used in the art and will be readily understood to mean: • i) “low” levels of c-Myc-a level of MYC expression which represents non-proliferating normal cells (i.e. a level of MYC expression not sufficient to cause the cycling of the cells); • ii) “medium” levels of c-Myc-a level of MYC expression which represents normal proliferating cells; and • iii) ““high” levels of c-Myc-a level of MYC expression which represents enforced/deregulated expression of c-Myc, typically observed in cancerous cells. At the respective end points of the experiments 20 μL/well of the CellTiter Blue Assay (Promega, G8081) were added and the cells were incubated at 37° C. for 3 hours. The fluorescence was measured at 570 nm using an EnVisionTM plate reader. As a positive control, the highest DMSO concentration was added to the cells (usually 0.4% DMSO); as a negative control, the cells were treated with 10 μg/mL Puromycin and 1 uM Staurosporine (Merck, […] and […], respectively). The experiment was performed in a 96 well plate and in technical quadruplicate. […]

[2] = test system: SKNAS-ER-N-MYC cell line; test: Flow cytometry (cell number, caspase3, cell cycle), SKNAS-ER-N-MYC; format: cell-based, human; details: MYCN activated cells; FIG. 19
Description: (§1) Single-cell suspensions were stained with the following monoclonal antibody: α-Active Caspase3 (BD Biosciences, C92-605, 550821, PE) and c-Myc (Abeam, Y69, ab190560). To analyse DNA content, we stained with FxCycle Violet (ThermoFisher Scientific, F10347). To assess proliferation, we used the Click-iT EdU Alexa Fluor 488 Flow Cytometry Assay Kit (ThermoFisher Scientific, C10420) according to manufacturer's instructions. Zombie NIR (Biolegend, 423105) was used to exclude dead cells. The cells were fixed in a 4% solution of PFA, permeabilised with Cytofix/Cytoperm (BD Bioscience, 554714) and washed in Perm/Wash Buffer (BD Bioscience, 554723). Samples were acquired on a MACSQuant VYB (Miltenyi Biotec) and analysed using the FlowJo software (v10.4, Tree star).
(§2) The experiment was performed in a 24 well plate and in technical duplicate. On day 0, 7,800 cells/well for the Shep and 15,000 cells/well for the SKNAS were seeded in 500 μL media. On day 1, the media was removed and 600 μL of media with 100 nM of Tamoxifen, to induce N-Myc, or ethanol as control. On day 2, the respective concentrations of NMT inhibitor were added. After 6 hours, 24 hours, 48 hours and 72 hours the cells were treated according to the general procedures; however, all the media was collected to not loose apoptotic cells, and Trypsin (ThermoFisher Scientific, 25200056) was used to harvest the cells. […]

[3] = test system: Shep-ER-N-MYC cell line; test: CellTiter Blue metabolic viability, Shep-ER-N-MYC; format: cell-based, human; details: 72 hours, with or without induction of MYCN
Description: (§3) In the experimental protocols described herein the SKNAS and Shep cell lines were genetically engineered to model differences between high grade neuroblastoma (which are usually marked by MYCN amplifications and with particular poor clinical prognosis) and low grade neuroblastoma. Accordingly, the SKNAS and/or Shep cell lines “with N-MYC induction” described herein will be understood to be cell lines treated with tamoxifen and represent aggressive, high grade type cancer cells. Conversely, the SKNAS and/or Shep cell lines “without N-MYC induction” described herein will be understood to be cell lines not treated with tamoxifen and represent less aggressive forms of cancer cells (Huang et al., Cold Spring Harb. Perspect. Med., 2013, 3(10), 1-22).
(§4) At the respective end points of the experiments 20 μL/well of the CellTiter Blue Assay (Promega, G8081) were added and the cells were incubated at 37° C. for 3 hours. The fluorescence was measured at 570 nm using an EnVision™ plate reader. As a positive control, the highest DMSO concentration was added to the cells (usually 0.4% DMSO); as a negative control, the cells were treated with 10 μg/mL Puromycin and 1 uM Staurosporine (Merck, P7255 and S4400, respectively).
The experiment was performed in a 96 well plate and in technical quadruplicate. On day 0, 1,000 cells/well were seeded in 50 μL media. […]

[4] = test system: SKNAS-ER-N-MYC cell line; test: CellTiter Blue metabolic viability, SKNAS-ER-N-MYC; format: cell-based, human; details: 96 hours, with or without induction of MYCN
Description: as §3, §4
The experiment was performed in a 48 well plate and in technical triplicate. On day 0, 5,500 cells/well were seeded in 200 μL media. […]

[5] = test system: Shep-ER-N-MYC cell line; test: Flow cytometry (cell number, caspase3, cell cycle), Shep-ER-N-MYC; format: cell-based, human
Description: as §1, §2

[6] = test system: MRC5 cells; test: Metabolic activity assay (MTS assay); format: cell-based; details: Homo sapiens, MRC5 fibroblast cells, 72 h
Experimental: Compounds 5 and 7 were also tested for activity in an in vitro metabolic activity assay using the human cell line MRC5. Compounds having activity in inhibiting metabolic activity in the assay are expected to be useful as agents for preventing and/or treating cancer, by virtue of being inhibitors of human NMT1 and/or NMT2.
MRC5 cells (cell type: fibroblast cells) were grown in DMEM media (supplemented with 10% FBS) and were seeded in a 96-well plate, 24 h prior to treatment. Cell suspensions were prepared by adjusting the cell density to the appropriate concentration (as stated in the Table 1 below) and 50 μL of the cell suspension was transferred to wells B-G in columns 2-11 of a 96-well plate. […]
After 72 h, 20 μL MTS reagent (Promega, prepared according to the supplier protocol) was added to each well of the 96-well plate. The plate was incubated at 37° C. for 2 h and the absorbance per well was measured at 490 nm with an EnVision plate reader. The average absorbance value of the negative control (Puromycin-treated cells) was subtracted from each value and the metabolic activity was calculated as a percentage relative to the positive control (DMSO-treated cells). EC50 values were calculated using GraphPad.

[7] = target: T1, human NMT1 (HsNMT1) (Homo sapiens, UniProt P30419); test: HsNMT1 fluorescence-based assay (CoA detection by CPM); format: biochemical
T1 sequence (P30419 1-496): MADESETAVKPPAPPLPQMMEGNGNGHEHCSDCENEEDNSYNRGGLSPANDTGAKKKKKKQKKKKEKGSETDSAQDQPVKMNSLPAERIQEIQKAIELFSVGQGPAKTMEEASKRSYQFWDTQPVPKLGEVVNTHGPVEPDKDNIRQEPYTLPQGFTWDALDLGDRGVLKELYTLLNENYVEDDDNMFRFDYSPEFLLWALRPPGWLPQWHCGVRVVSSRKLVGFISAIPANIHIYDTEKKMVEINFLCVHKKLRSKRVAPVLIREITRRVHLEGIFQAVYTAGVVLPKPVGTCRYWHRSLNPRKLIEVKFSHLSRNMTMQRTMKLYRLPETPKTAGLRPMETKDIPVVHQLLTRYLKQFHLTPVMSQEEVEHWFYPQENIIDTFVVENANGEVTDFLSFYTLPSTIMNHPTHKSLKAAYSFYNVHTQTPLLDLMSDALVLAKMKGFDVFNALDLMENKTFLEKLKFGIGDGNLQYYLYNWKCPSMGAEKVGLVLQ
Experimental: The IC50 values for human NMT1 (HsNMT1) of Compounds 5 and 7 were measured using a sensitive fluorescence-based assay based on detection of CoA by 7-diethylamino-3-(4-maleimido-phenyl)-4-methylcoumarin, as described in Goncalves, V., et al., Analytical Biochemistry, 2012, 421, 342-344 and Goncalves, V., et al., J. Med. Chem, 2012, 55, 3578.

Row | IC50 [7] [nM] | SMILES | effect on cell viability ([1]; 10 nM, 72 hours, Myc high cell lines) | cell death depending on c-MYC level ([1]; 48 hours and 72 hours, c-MYC high, medium, low) | cell cycling [2] | cell death with high versus low levels of MYCN [3] | cell death with high versus low levels of MYCN [4] | cell cycling ([5]; MYCN activated cells, FIG. 17) | cell cycling ([5]; cell line without activated MYCN) | EC50 [6] [nM]
1 |  | Cc1nn(C)c(C)c1CCOc1c(-c2ccc3c(c2)c(CN(C)C)nn3C)ccc(F)c1F [Compound 2, 1-(5-(3,4-difluoro-2-(2-(1,3,5-trimethyl-1H-pyrazol-4-yl)ethoxy)phenyl)-1-methyl-1H-indazol-3-yl)-N,N-dimethylmethanamine] | measurable effects on cell viability | clear MYC-dependent increase in cell death | do not reduce their cycling | increased cell death more rapidly at lower concentrations | increased cell death more rapidly at lower concentrations | do not reduce their cycling | stops cycling at 48 hours | 
2 | 1.5 | Cc1c(CCOc2cc(Cl)ccc2-c2ccc3ncc(CCN)n3c2)c(C(=O)N(C)C)nn1C [Compound 5, 4-(2-{2-[3-(2-aminoethyl)imidazo[1,2-a]pyridin-6-yl]-5-chlorophenoxy}ethyl)-N,N,1,5-tetramethyl-1H-pyrazole-3-carboxamide] |  |  |  |  |  |  |  | 13
3 | 0.4 | CNC(=O)c1nn(C)c(C)c1CCOc1cc(Cl)ccc1-c1ccc2ncc(CCN)n2c1 [Compound 7, 4-(2-{2-[3-(2-aminoethyl)imidazo[1,2-a]pyridin-6-yl]-5-chlorophenoxy}ethyl)-N,1,5-trimethyl-1H-pyrazole-3-carboxamide] |  |  |  |  |  |  |  | 37
